Data taken from patent publication US20030012732A1, “Feeding assay for identifying nematicidal compounds” (priority 1999, published 2003).

Key:
C. elegans [1] = assay: Videotaping nematodes under Nomarski interference microscopy (pharyngeal pumping rate); assay type: in vivo; conditions: at the doses of FIG. 3, separate experiments (not shown)
C. elegans [2] = assay: Feeding assay: ingestion of fluorescent microsphere beads (pharyngeal pumping), read by fluorimetry / fluorescence microscopy; assay type: in vivo, C. elegans of the Bristol N2 strain
Description: 1. C. elegans of the Bristol N2 strain (Brenner, S. 1974. The genetics of Caenorhabditis elegans. Genetics 77: 71-94) were cultured at room temperature on HMS174 E. coli bacteria (Campbell, J. L., Richardson, C., and Studier, F. W. 1978. Genetic recombination and complementation between bacteriophage T7 and cloned fragments of T7 DNA. Proc. Natl. Acad. Sci. USA. 75: 2276-2280) spread on a 150 mm diameter petri dish containing enhanced NGM 3% (w/v) (Avery, L., and Horvitz, H. R. 1990. Effects of starvation and neuroactive drugs on feeding in Caenorhabditis elegans. J. Exp. Zool. 253: 263-270) agar until a good population of adult nematodes was present, but food reserves had not been exhausted. (Nematodes may be mass cultured in suspension if required).
2. The nematodes were collected by washing with 10 mL and then 5 mL of […] and filtering over a 20 μm nylon mesh (Nytal—Catalogue no. BCNY-HD002-20) to retain adult nematodes.
3. Adult nematodes were collected from the mesh using a pasteur pipette and allowed to settle in an eppendorf tube at 1 g for 10 minutes. This packed volume was used to calculate quantities of nematodes for experiments and assays, although nematodes were resuspended in 2-10 volumes of M9 buffer for transfer. Quantitative transfers of nematodes were performed using a Gilson Pipetman P200 or equivalent and a yellow tip with 5 mm cut off the sharp end.
4. 96-well mesh-bottomed plates were blocked prior to performing the assay in order to minimise non-specific adherence of fluorescent microsphere beads. To block, 200 μL of a 0.1% (w/v) suspension of dark blue-dyed, non-fluorescent microsphere beads with a mean diameter of 0.95 μm and a hydrophilic surface coating (Catalogue code DC03B, carboxylate-modified polystyrene/polyvinyl copolymer) (manufactured and supplied by Bangs Laboratories, Inc. 9025 Technology Drive. Fishers, Ind. 46038-2886, USA) were added to the plate and incubated overnight at room temperature with orbital shaking at 70 r.p.m. Prior to the assay, the bead suspension was removed under vacuum using a Millipore Multiscreen manifold. The plate was washed three times by pipetting 200 μL of M9 buffer into each well, allowing the plate to sit for 5 minutes and then sucking off the suspension.
5. The assay was either set up in the wells of a solid-bottomed 24-well plate using a final assay volume in the range of 0.5 to 1.0 mL or it was set up in the wells of a 96-well mesh bottomed plate (Millipore Multiscreen N20 plates, custom order no. SE3R090M6). In the latter case, the final assay volume was always 100 μL. The assay buffer in all cases was M9. The added volume of a stock of M9 and the added volume of double-distilled water were adjusted so as to achieve a final concentration of 1×M9 in the desired assay volume. A sufficient volume of a suspension of nematodes was added to the assay wells to give a final percentage in the range of 2.5% to 15% (v/v) depending on the experiment. A stock solution of the drug or test compound (e.g. serotonin) was added to the wells of the plate to give the desired final concentration. A sufficient volume of a suspension of fluorescent microsphere beads in double-distilled water was added to give a final concentration in the range of 0.025% to 0.1% (w/v) depending on the experiment.
6. The fluorescent beads were 1.30 μm uniformly dyed microsphere beads with a hydrophilic surface-coating. The fluorescence excitation maximum was 420 nm and the emission maximum was 485 nm (catalogue code FC04F, carboxylate-modified polystyrene/polyvinyl copolymer, manufactured and supplied by Bangs Laboratories, Inc. 9025 Technology Drive, Fishers, Ind. 46038-2886, USA).
7. The assay plate was placed on an orbital shaker at 70 r.p.m. at room temperature and incubated for up to 180 minutes (normally 60 minutes), under subdued illumination.
8. At the end of the incubation 20 μL of 100 mM sodium azide was added to the wells of the 96-well mesh plate. […]

## NCCc1c[nH]c2ccc(O)cc12 [serotonin]
C. elegans [1]
  effect on pharyngeal pumping rate: directly affects pharyngeal pumping rate
C. elegans [2]; 5 mM serotonin, 60 minutes, FIG. 3
  effect of high concentration on signal (bead ingestion): suboptimal
C. elegans [2]; 10 μL packed volume of adult nematodes (1,600-1,800 nematodes), two hour incubation, gain setting of 30
  signal over control: 6246 arbitrary fluorescence intensity units
C. elegans [2]; estimated, high magnification examination
  microsphere beads contained in strongly labelled nematodes: at least several hundred microsphere beads
C. elegans [2]; in vivo
  effect on microsphere bead ingestion when present during the incubation: increased microsphere bead ingestion
C. elegans [2]; later experiments, optimised conditions
  average number of microsphere beads ingested by nematodes more than a control nematode: ≤ 2,400 microsphere beads
C. elegans [2]; later experiments, optimised conditions, same volume of nematodes
  signal strength over control relative to the earlier experiment: approximately 6 times greater
C. elegans [2]; other experiments under similar conditions to FIG. 1, high magnification examination
  treated nematodes that had ingested one or more microsphere beads: approximately 80%
C. elegans [2]; same experiment, two hour incubation
  microsphere beads ingested on average per serotonin-treated nematode more than a control nematode: 417 microsphere beads
